{"source": "patent US20260000642A1", "about": "(Tay Therapeutics Limited, priority 2022, published 2026)", "key": {"[1]": {"assay": "Plasma stability assay, mouse plasma", "type": "in vitro ADME", "conditions": "37° C., Method 1 (5 μM)", "procedure": "Exemplary compounds of the disclosure are stable upon incubation in mouse plasma. Stability is expressed as a % remaining after 120 minutes. The experimental methods and results (Table 2) are provided hereinafter.\nPlasma Stability Assay, Method 1\nFrom stock solution of compound in 10 mM DMSO, a working solution of 1 mM is prepared by diluting the compound in DMSO. To 398 μL of plasma pre-warmed at 37° C. for 15 minutes), 2 μL of working solution of compound is added, resulting in a final concentration of 5 μM (0.5% DMSO) for the compound. The sample is then incubated at 37° C. Aliquot is withdrawn at specified time-points (0, 15, 30, 60 and 120 mins). The reaction is stopped by addition of 450 μL cold acetonitrile containing internal standard (IS). […] Aliquots of the supernatant is analysed using LC-MS/MS. The percent remaining of the compound at each time point is calculated with respect to the control sample (0 min time-point).\nPlasma Stability Assay, Method 2\nA working solution of compound (500 μM) is prepared in DMSO (100%). To 735 μL of plasma, 15 μL of working solution of compound is added—resulting in a final concentration of 10 μM (2% DMSO) for the compound. […] The samples are centrifuged and the supernatants analyzed using LC-MS/MS. The percent remaining of the compound at each time point is calculated with respect to the control sample (0 min time-point)."}, "[2]": {"assay": "Plasma stability assay, rat plasma", "type": "in vitro ADME", "conditions": "37° C., Method 1 (5 μM)", "method_in_brief": "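Compound incubated in plasma at 37° C, either at 5 μM (0.5% DMSO) sampled at 0, 15, 30, 60, 120 min (Method 1) or at 10 μM (2% DMSO) sampled at 0, 15, 30, 60, 90, 120 min (Method 2). Quenched with cold acetonitrile plus internal standard; LC-MS/MS, % remaining relative to 0 min.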"}, "[3]": {"tested_on": "hydroxyproline", "assay": "UUO model: kidney hydroxyproline by ELISA", "type": "in vivo, rat", "conditions": "UUO rats; 30 mg/kg; compared with sham and UUO + vehicle", "description": "Serum for blood biochemistry analysis was collected into centrifuge tubes without coagulant four hours after final dosing. Blood plasma samples from group 3 was collected into tubes with K2EDTA four hours after final dosing. At the conclusion of the study (end of the 14-day period), animals were euthanized. Kidney tissue was collected four hours after final dosing. Ligated side kidney was divided into three copies 1/3 fix into 10% formalin for H&E analysis, 1/3 into RNA for PCR analysis of tissue biomarkers Col1a1, TGF-b1, MCP-1, IL-1b, IL-6, IL-17, TNF-a, and Timp1, and 1/3 for hydroxyproline assay analyzed by ELISA. RNA was extracted from tissue using the RNeasy mini kit (Qiagen). RNA concentration was measured using a NanoDrop One Spectrophotometer (ThermoFisher) and converted to cDNA using a High-Capacity RNA-to-cDNA kit (Invitrogen). RT-PCR was performed to measure levels of mRNA of different targets using TaqMan® Gene Expression Master Mix and TaqMan® probe/primer sets on a QuantStudio 6 Real-Time PCR System (ThermoFisher). Fold change in target gene expression was determined using the ΔΔCt method."}}, "data": [{"smiles": "CNC(=O)c1[nH]c(C(=O)NC2CCC2)cc1O[C@@H](C)c1ccccc1", "note": "[Example 101, N^5-cyclobutyl-N^2-methyl-3-(1-phenylethoxy)-1H-pyrrole-2,5-dicarboxamide]", "values": [{"measurement": "Plasma Stability (% remaining at 120 minutes) Mouse", "setting": "[1]", "result": ">99", "unit": "%"}, {"measurement": "Plasma Stability (% remaining at 120 minutes) Rat", "setting": "[2]", "result": 61, "unit": "%"}, {"measurement": "hydroxyproline levels", "setting": "[3]", "result": "No significant differences"}]}]}
